Values joined by “and” are separate entries in the source; they are usually repeats but may differ in a detail not shown here. Identical values can stand only once. Like-named read-outs stand apart in the source and are kept apart here.
Assays:
human A2B AR = target: T1, human A2B AR (Homo sapiens, UniProt P29275); conditions: cited from earlier work
T1 construct: expressed in transfected cells; host or cells: CHO cells
T1 sequence (P29275 1-332): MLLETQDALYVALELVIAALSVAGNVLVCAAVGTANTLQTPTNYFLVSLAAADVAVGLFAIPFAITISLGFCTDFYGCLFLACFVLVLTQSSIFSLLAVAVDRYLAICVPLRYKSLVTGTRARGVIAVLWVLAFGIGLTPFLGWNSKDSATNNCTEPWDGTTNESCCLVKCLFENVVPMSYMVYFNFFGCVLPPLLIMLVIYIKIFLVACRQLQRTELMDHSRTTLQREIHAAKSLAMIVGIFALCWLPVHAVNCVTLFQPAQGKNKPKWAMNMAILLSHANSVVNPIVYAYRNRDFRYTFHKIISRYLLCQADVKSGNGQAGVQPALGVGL

human A3 AR = target: T2, human A3 AR (Homo sapiens, UniProt P0DMS8); conditions: cited from earlier work; for Ki: human (h)
T2 construct: expressed in transfected cells; host or cells: CHO cells
T2 sequence (P0DMS8 1-318): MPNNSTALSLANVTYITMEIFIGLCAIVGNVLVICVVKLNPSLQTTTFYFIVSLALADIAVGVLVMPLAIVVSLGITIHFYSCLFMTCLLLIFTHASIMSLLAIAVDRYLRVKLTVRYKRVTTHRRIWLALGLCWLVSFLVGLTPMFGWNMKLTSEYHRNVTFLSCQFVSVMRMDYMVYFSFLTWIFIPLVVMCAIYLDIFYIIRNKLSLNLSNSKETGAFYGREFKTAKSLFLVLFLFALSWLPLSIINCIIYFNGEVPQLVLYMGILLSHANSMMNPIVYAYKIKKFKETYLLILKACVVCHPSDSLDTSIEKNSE

rat A2A AR = target: T3, rat A2A AR (Rattus norvegicus, UniProt P30543); conditions: cited from earlier work
T3 construct: A2A ARs of rat brain striatal membrane preparations; from tissue; host or cells: rat brain striatum membranes
T3 sequence (P30543 whole entry): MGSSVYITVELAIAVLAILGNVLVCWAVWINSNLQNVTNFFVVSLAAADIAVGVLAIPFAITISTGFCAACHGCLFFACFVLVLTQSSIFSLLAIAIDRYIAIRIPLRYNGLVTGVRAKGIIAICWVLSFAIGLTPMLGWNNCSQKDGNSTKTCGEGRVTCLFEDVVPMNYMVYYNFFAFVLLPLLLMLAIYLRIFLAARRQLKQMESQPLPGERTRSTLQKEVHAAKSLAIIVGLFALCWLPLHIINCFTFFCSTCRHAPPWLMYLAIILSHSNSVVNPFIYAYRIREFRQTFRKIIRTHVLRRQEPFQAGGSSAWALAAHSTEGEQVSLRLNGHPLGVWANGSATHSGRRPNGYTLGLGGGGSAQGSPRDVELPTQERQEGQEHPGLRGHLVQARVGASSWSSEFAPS

rat MAO-B = system: rat MAO-B; design: method as in Brunschweiger et al., 2014, 2016; conditions: rat (r); Figure 3 and introduction; ref Brunschweiger et al., 2014, 2016; cited from earlier work
human A2A AR = target: T4, human A2A AR (Homo sapiens, UniProt P29274); conditions: cited from earlier work; for Ki: human (h), 2013, 2007
T4 construct: expressed in transfected cells; host or cells: CHO cells
T4 sequence (P29274 whole entry): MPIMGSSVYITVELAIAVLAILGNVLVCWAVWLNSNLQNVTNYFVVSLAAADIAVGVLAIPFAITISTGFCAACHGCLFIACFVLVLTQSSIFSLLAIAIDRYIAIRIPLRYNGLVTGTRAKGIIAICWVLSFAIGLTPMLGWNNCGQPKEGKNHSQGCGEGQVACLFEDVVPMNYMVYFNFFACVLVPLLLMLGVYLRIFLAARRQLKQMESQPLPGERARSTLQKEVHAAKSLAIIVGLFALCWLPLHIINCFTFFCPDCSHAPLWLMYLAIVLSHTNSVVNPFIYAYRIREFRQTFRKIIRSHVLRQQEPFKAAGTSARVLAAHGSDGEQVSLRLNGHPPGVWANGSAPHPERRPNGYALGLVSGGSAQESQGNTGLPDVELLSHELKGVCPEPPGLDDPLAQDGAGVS

[1] = system: haloperidol-induced catalepsy; design: method as in Wang et al., 2017; Robinson et al., 2015; conditions: rat; ref Wang et al., 2017; Robinson et al., 2015; cited from earlier work
recombinant human MAO-B = target: T5, recombinant human MAO-B (Homo sapiens, UniProt P27338); conditions: human (h), 2013, cited from earlier work
T5 construct: purchased Sigma-Aldrich M7441; host or cells: baculovirus-infected insect cells
T5 sequence (P27338 1-520): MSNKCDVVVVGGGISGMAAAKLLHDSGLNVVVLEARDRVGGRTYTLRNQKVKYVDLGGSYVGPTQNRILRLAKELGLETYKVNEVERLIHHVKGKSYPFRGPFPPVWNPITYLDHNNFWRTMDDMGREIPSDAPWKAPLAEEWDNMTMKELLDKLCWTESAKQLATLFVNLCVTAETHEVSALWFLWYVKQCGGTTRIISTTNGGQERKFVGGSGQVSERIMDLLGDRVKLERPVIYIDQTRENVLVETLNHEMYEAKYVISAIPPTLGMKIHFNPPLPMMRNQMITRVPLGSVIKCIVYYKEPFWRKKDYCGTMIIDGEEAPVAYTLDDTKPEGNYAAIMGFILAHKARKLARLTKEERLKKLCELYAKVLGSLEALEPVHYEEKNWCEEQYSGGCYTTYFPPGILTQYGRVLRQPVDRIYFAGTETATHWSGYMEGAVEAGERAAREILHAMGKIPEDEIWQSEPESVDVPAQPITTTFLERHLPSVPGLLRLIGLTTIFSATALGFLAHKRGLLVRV

human A1 AR = target: T6, human A1 AR (Homo sapiens, UniProt P30542); conditions: cited from earlier work
T6 construct: expressed in transfected cells; host or cells: CHO cells
T6 sequence (P30542 1-326): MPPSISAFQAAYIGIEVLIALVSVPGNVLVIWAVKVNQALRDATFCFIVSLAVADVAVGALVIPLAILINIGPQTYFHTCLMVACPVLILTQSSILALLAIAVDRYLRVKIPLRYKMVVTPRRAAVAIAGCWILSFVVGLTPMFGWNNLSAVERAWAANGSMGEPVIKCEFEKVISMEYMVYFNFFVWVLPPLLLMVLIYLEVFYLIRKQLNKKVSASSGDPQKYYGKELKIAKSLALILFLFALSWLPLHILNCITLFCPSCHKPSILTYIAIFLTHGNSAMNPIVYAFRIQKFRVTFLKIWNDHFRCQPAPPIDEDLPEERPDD

recombinant human MAO-A = target: T7, recombinant human MAO-A (Homo sapiens, UniProt P21397); assay: Monoamine oxidase assay (Amplex Red), MAO-A; type: biochemical
T7 construct: purchased Sigma-Aldrich M7316; host or cells: baculovirus-infected insect cells
T7 sequence (P21397 1-527): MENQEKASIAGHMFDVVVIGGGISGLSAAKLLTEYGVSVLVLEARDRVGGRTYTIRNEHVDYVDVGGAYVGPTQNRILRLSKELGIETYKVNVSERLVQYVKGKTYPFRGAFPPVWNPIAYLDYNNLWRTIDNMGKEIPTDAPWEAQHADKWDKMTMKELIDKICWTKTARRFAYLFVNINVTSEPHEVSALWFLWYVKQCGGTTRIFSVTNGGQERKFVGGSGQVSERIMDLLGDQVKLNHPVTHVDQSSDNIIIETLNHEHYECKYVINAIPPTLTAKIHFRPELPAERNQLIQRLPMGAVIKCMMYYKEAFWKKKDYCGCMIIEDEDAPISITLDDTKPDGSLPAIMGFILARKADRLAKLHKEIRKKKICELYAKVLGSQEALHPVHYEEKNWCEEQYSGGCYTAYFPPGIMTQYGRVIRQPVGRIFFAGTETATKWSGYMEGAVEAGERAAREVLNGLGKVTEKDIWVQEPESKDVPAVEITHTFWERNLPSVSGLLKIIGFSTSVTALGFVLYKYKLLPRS
Method in brief: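 Inhibition was measured with an Amplex Red monoamine oxidase assay, using human MAO-A and MAO-B produced recombinantly in baculovirus-infected insect cells. For rat MAO-B, liver mitochondria-enriched fractions from male Sprague Dawley rats served as enzyme source.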

[2] = radioligand, ref Müller et al., 2000
[3] = Figure 3 and introduction, ref Drabczynska et al., Koch et al., Brunschweiger et al., 2014, 2016
[4] = human (h), Figure 3 and introduction, ref Drabczynska et al., 2007, Koch et al., 2013, Brunschweiger et al., 2014, 2016, read-out: A1 (Ki)
[5] = Figure 3 and introduction, ref Drabczynska et al., 2007, Koch et al., Brunschweiger et al., 2014, 2016

Molecule: O=C(CCCc1ccccc1)Nc1nc2ccccc2c(=O)s1 [Compound 6, N-(4-oxo-4H-3,1-benzothiazin-2-yl)-4-phenylbutanamide]
- Ki (human A2B AR; human (h), Figure 2, ref Chen et al., 2002, Stössel et al., 2013): > 1000 nM
- Ki (human A3 AR; Figure 2, ref Chen et al., 2002, Stössel et al., 2013, Mihara et al., 2007, read-out: A3 (Ki)): > 1000 nM

Molecule: Cn1c(=O)c2c(nc3n2CCN(Cc2ccc(Cl)c(Cl)c2)C3)n(C)c1=O [Compound 10b, 8-(3,4-Dichlorobenzyl)-1,3-dimethyl-6,7,8,9-tetrahydropyrazino[2,1-f]purine-2,4(1H,3H)-dione]
- Ki (rat A2A AR; rat (r), Figure 3 and introduction, ref Brunschweiger et al., 2014, 2016): 322 nM
- IC50 (rat MAO-B): 260 nM

Molecule: C#CCn1c(=O)c2c(nc(C=Cc3cccc(OC)c3)n2C)n(CCCO)c1=O [[^3H]MSX-2, [^3H]3-(3-hydroxypropyl)-7-methyl-8-(m-methoxystyryl)-1-propargylxanthine]
- Kd (human A2A AR; [2]): 7.3 nM
- Kd (rat A2A AR; [2]): 8 nM

Molecule: Cn1c(=O)c2c(nc(-c3ccc(C(=O)Nc4ccccc4)cc3)n2C)n(C)c1=O [PX-D-P6]
- effect in haloperidol-induced catalepsy model [1]: anti-cataleptic effects
- Ki (human A2A AR; Figure 2 and introduction, ref Chen et al., 2002, Wang et al., 2017, Stössel et al., Mihara et al.): 330 nM
- IC50 (recombinant human MAO-B; Figure 2 and introduction, ref Chen et al., 2002, Pretorius et al., 2008, Wang et al., 2017, Stössel et al.): 260 nM and 290 nM

Molecule: Cn1c(=O)c2c(nc(C=Cc3cccc(Cl)c3)n2C)n(C)c1=O [CSC, 8-m-Chlorostyrylcaffeine]
- Ki (human A3 AR; standard antagonists, ref Müller and Jacobson (2011), Brunschweiger et al. (2014), read-out: Ki, A3 vs. [^3H]PSB-11): > 10000 nM
- % inhibition of radioligand binding at indicated concentration, A1 vs. [^3H]CCPA (human A1 AR; at 10,000 nM, ref Müller and Jacobson (2011), Brunschweiger et al. (2014)): 14%
- Ki (human A1 AR; read-out: Ki, A1 vs. [^3H]CCPA, standard antagonists, ref Müller and Jacobson (2011), Brunschweiger et al. (2014)): > 10000 nM
- inhibition at 10 µM (recombinant human MAO-A; at 10,000 nM, read-out: % inhibition at indicated concentration, Human MAO-A): 23%
- IC50 (recombinant human MAO-A; n = 3, read-out: IC50 ± SEM, Human MAO-A): > 10000 nM

Molecule: Cc1ccc(-c2cc(-c3cccc(C(=O)N4CCCCC4)c3)nc(N)n2)o1 [Compound 8]
- effect in haloperidol-induced catalepsy model [1]: in vivo efficacy

Molecule: [^3H]8-(4-[4-(4-chlorophenyl)piperazine-1-sulfonyl]phenyl)-1-propyl-2,3,6,7-tetrahydro-1H-purine-2,6-Dione [[^3H]PSB-603]
- Kd (human A2B AR; radioligand, ref Borrmann et al., 2009): 0.41 nM

Molecule: Cn1c(=O)c2c(nc3n2CCN(Cc2cc(F)c(Cl)cc2Cl)C3)n(C)c1=O [Compound 10a, 8-(2,4-dichloro-5-fluorobenzyl)-1,3-dimethyl-6,7,8,9-tetrahydropyrazino[2,1-f]purine-2,4(1H,3H)-dione]
- Ki (human A2A AR; [3]): 268 nM
- Ki (human A1 AR; [4]): 217 nM
- IC50 (recombinant human MAO-B; [5]): 508 nM

Molecule: COc1ccccc1CN1CCCn2c1nc1c2c(=O)n(C)c(=O)n1C [Compound 9b]
- Ki (human A2A AR; [3]): 417 nM
- Ki (human A1 AR; [4]): 605 nM
- IC50 (recombinant human MAO-B; [5]): 1800 nM

Molecule: [^3H](R)-8-ethyl-4-methyl-2-(phenyl)1,4,7,8-tetrahydro-5H-imidazo[2,1-i]purin-5-one [[^3H]PSB-11]
- Kd (human A3 AR; radioligand, ref Müller et al., 2002): 4.9 nM
